The test system of one experiment is Cell membrane. The experiment is described as follows: Induction of membrane destabilization in Escherichia coli MG1655 assessed as SYTOX uptake at 2 times MIC measured every 5 mins for 120 mins by microplate reader assay. The class given is cell membranes.
Experiment [1] deals with Escherichia coli. The experiment in a line: Antibacterial activity against […] Escherichia coli clinical isolate 2 assessed as bacterial growth inhibition incubated for 20 hrs by broth microdilution method. It is filed as functional.
Experiment [2] relates to Escherichia coli. The experiment is described as follows: Antibacterial activity against […] Escherichia coli clinical isolate 1 assessed as bacterial growth inhibition incubated for 20 hrs by broth microdilution method. The class given is functional. Background: Dilution methods test growth across graded concentrations, often in twofold steps.
Experiment [3] has as its system Klebsiella pneumoniae. The experiment in a line: Antimicrobial activity against colistin resistant Klebsiella pneumoniae clinical isolate 2 assessed as bacterial growth inhibition incubated for 20 hrs by broth microdilution method. It is filed as functional.
For experiment [4], the system named is Acinetobacter baumannii. The experiment in a line: Antimicrobial activity against colistin resistant Acinetobacter baumannii clinical isolate 3 assessed as bacterial growth inhibition incubated for 20 hrs by broth microdilution method. The class given is functional.
The test system of experiment [5] is Klebsiella pneumoniae. The experiment in a line: Antimicrobial activity against Klebsiella pneumoniae ATCC 13883 assessed as bacterial growth inhibition incubated for 20 hrs by broth microdilution method. The class given is functional.
In experiment [6] the test system is Klebsiella pneumoniae. The experiment in a line: Antimicrobial activity against colistin resistant Klebsiella pneumoniae clinical isolate 4 assessed as bacterial growth inhibition incubated for 20 hrs by broth microdilution method. The class given is functional.
Experiment [7] concerns Klebsiella pneumoniae. The experiment is described as follows: Antimicrobial activity against colistin resistant Klebsiella pneumoniae ATCC 13883 assessed as bacterial growth inhibition incubated for 20 hrs by broth microdilution method. The class given is functional.
In experiment [8] the test system is Pseudomonas aeruginosa. The experiment in a line: Antimicrobial activity against colistin resistant Pseudomonas aeruginosa 7197/19 assessed as bacterial growth inhibition incubated for 20 hrs by broth microdilution method. It is filed as functional.
Experiment [9] relates to Acinetobacter baumannii. The experiment in a line: Antimicrobial activity against Acinetobacter baumannii ATCC 19606 assessed as bacterial growth inhibition incubated for 20 hrs by broth microdilution method. It is filed as functional.
Experiment [10] concerns Escherichia coli. The experiment in a line: Antibacterial activity against Escherichia coli ATCC 25922 assessed as bacterial growth inhibition incubated for 20 hrs by broth microdilution method. The class given is functional.
The test system of experiment [11] is Escherichia coli. The experiment is described as follows: Antibacterial activity against […] Escherichia coli clinical isolate 3 assessed as bacterial growth inhibition incubated for 20 hrs by broth microdilution method. The class given is functional.
Experiment [12] deals with Escherichia coli. The experiment is described as follows: Antibacterial activity against […] Escherichia coli ATCC 25922 assessed as bacterial growth inhibition incubated for 20 hrs by broth microdilution method. The class given is functional.
In experiment [13] the test system is Klebsiella pneumoniae. The experiment is described as follows: Antimicrobial activity against colistin resistant Klebsiella pneumoniae clinical isolate 3 assessed as bacterial growth inhibition incubated for 20 hrs by broth microdilution method. The class given is functional.
The test system of experiment [14] is Acinetobacter baumannii. The experiment in a line: Antimicrobial activity against colistin resistant Acinetobacter baumannii clinical isolate 1 assessed as bacterial growth inhibition incubated for 20 hrs by broth microdilution method. The class given is functional.
The test system of experiment [15] is Pseudomonas aeruginosa. The experiment in a line: Antimicrobial activity against Pseudomonas aeruginosa PAO1 assessed as bacterial growth inhibition incubated for 20 hrs by broth microdilution method. It is filed as functional.
Experiment [16] concerns Acinetobacter baumannii. The experiment is described as follows: Antimicrobial activity against colistin resistant Acinetobacter baumannii clinical isolate 4 assessed as bacterial growth inhibition incubated for 20 hrs by broth microdilution method. The class given is functional.
The test system of experiment [17] is Escherichia coli. The experiment in a line: Antimicrobial activity against […] Escherichia coli harboring mcr-1 assessed as bacterial growth inhibition incubated for 20 hrs by broth microdilution method. It is filed as functional.
The subject of experiment [18] is Pseudomonas aeruginosa. The experiment is described as follows: Antimicrobial activity against Pseudomonas aeruginosa ATCC 27853 assessed as bacterial growth inhibition incubated for 20 hrs by broth microdilution method. It is filed as functional.
In experiment [19] the test system is Klebsiella pneumoniae. The experiment is described as follows: Antimicrobial activity against colistin resistant Klebsiella pneumoniae clinical isolate 1 assessed as bacterial growth inhibition incubated for 20 hrs by broth microdilution method. The class given is functional.

Drawing on ChEMBL document CHEMBL5537158, “Polymyxins with Potent Antibacterial Activity against Colistin-Resistant Pathogens: Fine-Tuning Hydrophobicity with Unnatural Amino Acids” (J Med Chem, 2024), this text covers Activity and MIC for 6 compounds.

Each structure is given as a SMILES string. Values after ≈ are worked out from the molar mass of the structure shown. Active and inactive are the calls of the source. The rule behind the calls is not given here. Positions of bridges follow the written chain, without caps; N, C: chain ends. Non-standard residues stand in square brackets, D forms with d. Residues, ends and D or L forms follow the SMILES beside them. *: point of attachment. Gly(octyl) = CCCCCCCC[C@H](N)C(=O)O; hPhe = N[C@@H](CCc1ccccc1)C(=O)O; hLeu = CC(C)CC[C@H](N)C(=O)O; Octanoyl = CCCCCCCC(=O)*; Dab = NCC[C@H](N)C(=O)O

As for `CCCCCCCC(=O)N[C@@H](CCN)C(=O)N[C@H](C(=O)N[C@@H](CCN)C(=O)N[C@H]1CCNC(=O)[C@H]([C@@H](C)O)NC(=O)[C@H](CCN)NC(=O)[C@H](CCN)NC(=O)C(CCCCCC)NC(=O)[C@@H](Cc2ccccc2)NC(=O)[C@@H](CCN)NC1=O)[C@H](C)O` (some centres undefined), the outcome with Cell membrane was Active.
Consider `CCCCCCCC(=O)N[C@@H](CCN)C(=O)N[C@H](C(=O)N[C@@H](CCN)C(=O)N[C@H]1CCNC(=O)[C@H]([C@@H](C)O)NC(=O)[C@H](CCN)NC(=O)[C@H](CCN)NC(=O)C(CCCc2ccccc2)NC(=O)[C@@H](Cc2ccccc2)NC(=O)[C@@H](CCN)NC1=O)[C@H](C)O` (some centres undefined), for which the result in the experiment on Cell membrane was Active.
For `CCCCCCCC(=O)N[C@@H](CCN)C(=O)N[C@H](C(=O)N[C@@H](CCN)C(=O)N[C@H]1CCNC(=O)[C@H]([C@@H](C)O)NC(=O)[C@H](CCN)NC(=O)[C@H](CCN)NC(=O)[C@H](CC(C)C)NC(=O)[C@@H](Cc2ccc(Br)cc2)NC(=O)[C@@H](CCN)NC1=O)[C@H](C)O`, in the experiment with Cell membrane, the outcome was Active.
Broadly, the MIC is the lowest concentration found to suppress growth. In the case of `CCCCCCCC[C@@H]1NC(=O)[C@@H](Cc2ccccc2)NC(=O)[C@H](CCN)NC(=O)[C@@H](NC(=O)[C@H](CCN)NC(=O)[C@@H](NC(=O)[C@H](CCN)NC(=O)CCCCCCC)[C@@H](C)O)CCNC(=O)[C@H]([C@@H](C)O)NC(=O)[C@H](CCN)NC(=O)[C@H](CCN)NC1=O` (Octanoyl-[Dab]T[Dab][Dab][Dab][dF][Gly(octyl)][Dab][Dab]T; lactam 4-C), the minimum inhibitory concentration (MIC) in the experiment with Escherichia coli [1] worked out at 4 µg/mL (≈ 3.21 µM); with Escherichia coli [2], 4 µg/mL (≈ 3.21 µM); in the experiment with Klebsiella pneumoniae [3] it was 16 µg/mL (≈ 12.8 µM); in the experiment on Acinetobacter baumannii [4] it was 0.25 µg/mL (≈ 0.201 µM); in the experiment on Klebsiella pneumoniae [5], 0.25 µg/mL (≈ 0.201 µM); in the experiment with Klebsiella pneumoniae [6] it was 16 µg/mL (≈ 12.8 µM). In addition, the MIC was 16 µg/mL (≈ 12.8 µM) with Klebsiella pneumoniae [7]; 0.25 µg/mL (≈ 0.201 µM) in the experiment on Pseudomonas aeruginosa [8]; 0.25 µg/mL (≈ 0.201 µM) in the experiment with Acinetobacter baumannii [9]; 0.5 µg/mL (≈ 0.401 µM) with Escherichia coli [10]; 4 µg/mL (≈ 3.21 µM) in the experiment on Escherichia coli [11]; 0.5 µg/mL (≈ 0.401 µM) in the experiment on Escherichia coli [12]. Further, the results for the MIC with Klebsiella pneumoniae [13], in the experiment on Acinetobacter baumannii [14] and in the experiment on Pseudomonas aeruginosa [15] were 16 µg/mL (≈ 12.8 µM), 4 µg/mL (≈ 3.21 µM) and 0.5 µg/mL (≈ 0.401 µM), respectively.
As for `CCCCCCCC(=O)N[C@@H](CCN)C(=O)N[C@H](C(=O)N[C@@H](CCN)C(=O)N[C@H]1CCNC(=O)[C@H]([C@@H](C)O)NC(=O)[C@H](CCN)NC(=O)[C@H](CCN)NC(=O)[C@H](CCC(C)C)NC(=O)[C@@H](Cc2ccccc2)NC(=O)[C@H](CCN)NC1=O)[C@@H](C)O` (Octanoyl-[Dab]T[Dab][Dab][Dab][dF][hLeu][Dab][Dab]T; lactam 4-C), the MIC in the experiment on Escherichia coli [1] is 0.5 µg/mL (≈ 0.415 µM); with Klebsiella pneumoniae [3], 8 µg/mL (≈ 6.65 µM); in the experiment with Acinetobacter baumannii [4], 0.5 µg/mL (≈ 0.415 µM); in the experiment on Klebsiella pneumoniae [5], 0.25 µg/mL (≈ 0.208 µM); in the experiment on Acinetobacter baumannii [16], 2 µg/mL (≈ 1.66 µM); in the experiment on Escherichia coli [17] it was 1 µg/mL (≈ 0.831 µM). The minimal inhibitory concentration (MIC) with Pseudomonas aeruginosa [8] was 0.5 µg/mL (≈ 0.415 µM); in the experiment on Escherichia coli [10], less than 0.125 µg/mL; in the experiment with Escherichia coli [12] it was 0.125 µg/mL (≈ 0.104 µM); in the experiment with Acinetobacter baumannii [14], 4 µg/mL (≈ 3.32 µM); in the experiment with Pseudomonas aeruginosa [18], 0.25 µg/mL (≈ 0.208 µM); with Klebsiella pneumoniae [19], 16 µg/mL (≈ 13.3 µM). The MIC in the experiment on Pseudomonas aeruginosa [15] was less than 0.125 µg/mL.
Regarding `CCCCCCCC(=O)N[C@@H](CCN)C(=O)N[C@H](C(=O)N[C@@H](CCN)C(=O)N[C@H]1CCNC(=O)[C@H]([C@@H](C)O)NC(=O)[C@H](CCN)NC(=O)[C@H](CCN)NC(=O)[C@H](CCc2ccccc2)NC(=O)[C@@H](CC(C)C)NC(=O)[C@H](CCN)NC1=O)[C@@H](C)O` (Octanoyl-[Dab]T[Dab][Dab][Dab][dL][hPhe][Dab][Dab]T; lactam 4-C), the MIC with Escherichia coli [1] was determined as 1 µg/mL (≈ 0.831 µM); with Escherichia coli [2] it was 1 µg/mL (≈ 0.831 µM); with Klebsiella pneumoniae [3] it was 4 µg/mL (≈ 3.32 µM); in the experiment with Acinetobacter baumannii [4], 1 µg/mL (≈ 0.831 µM); with Escherichia coli [17], 1 µg/mL (≈ 0.831 µM); with Klebsiella pneumoniae [6] it was 4 µg/mL (≈ 3.32 µM). Moreover, the MIC in the experiment with Pseudomonas aeruginosa [8] was 1 µg/mL (≈ 0.831 µM); with Escherichia coli [10], 0.125 µg/mL (≈ 0.104 µM); in the experiment on Escherichia coli [11], 0.5 µg/mL (≈ 0.415 µM); in the experiment with Klebsiella pneumoniae [13] it was 4 µg/mL (≈ 3.32 µM); in the experiment on Pseudomonas aeruginosa [18], 0.25 µg/mL (≈ 0.208 µM); with Klebsiella pneumoniae [19], 4 µg/mL (≈ 3.32 µM). Further, in the experiment on Pseudomonas aeruginosa [15], the MIC stood at 0.25 µg/mL (≈ 0.208 µM).
